How the values were obtained:
Experiment in all cases: relative viability (nuclei count vs DMSO), 5 days (fraction); higher = more cells survive
[1] = test system: LK-2
In short: (§1)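 Lung cancer cell lines were pin-tool dosed in 1536-well plates on the day after seeding, with either a lone drug or a fixed anchor-drug dose plus five library-drug doses (not always all listed) in √10 steps. Nuclei were counted on 4× images after 5 days. Relative viability is the ratio of treated-well to vehicle-well nuclei counts, with each value a median of duplicate plates.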

[2] = test system: NCI-H1792
In short: as §1

[3] = test system: EMC-BAC-2
In short: as §1

[4] = test system: SW 1573
In short: as §1

[5] = test system: SK-LU-1
In short: as §1

[6] = test system: NCI-H727
In short: as §1

[7] = test system: HOP-62
In short: as §1

[8] = test system: NCI-H2009
In short: as §1

[9] = test system: NCI-H3122
In short: as §1

[10] = test system: NCI-H2228
In short: as §1

[11] = test system: LXF-289
In short: as §1

[12] = test system: LU99A
In short: as §1

[13] = test system: A-427
In short: as §1

[14] = test system: SK-MES-1
In short: as §1

[15] = test system: NCI-H1793
In short: as §1

[16] = test system: NCI-H1944
In short: as §1

[17] = test system: SW 900
In short: as §1

[18] = test system: COR-L23
In short: as §1

[19] = test system: ABC-1
In short: as §1

[20] = test system: NCI-H1993
In short: as §1

[21] = test system: PC-3 [JPC-3]
In short: as §1

[22] = test system: HARA
In short: as §1

[23] = test system: NCI-H2170
In short: as §1

`COc1cc(N2CCC(C(N)=O)CC2)ccc1Nc1nc(N)c(Cl)c(Nc2ccccc2S(=O)(=O)C(C)C)n1` [HG-5-88-01] + CC(=O)c1c(C)c2cnc(Nc3ccc(N4CCNCC4)cn3)nc2n(C2CCCC2)c1=O [Palbociclib] (partner 0.5 µM) was tested, and the relative viability ([1]; first compound 0.04 µM) was 0.772, the relative viability ([1]; first compound 0.1265 µM) was 0.582 and the relative viability ([1]; first compound 0.4 µM) was 0.71. The relative viability ([1]; first compound 4 µM) was 0.519, the relative viability ([2]; first compound 0.04 µM) was 0.74 and the relative viability ([2]; first compound 0.1265 µM) was 0.675. For the same molecule, the relative viability ([2]; first compound 0.4 µM) was 0.623, the relative viability ([2]; first compound 4 µM) was 0.614 and the relative viability ([3]; first compound 0.04 µM) was 0.516. It also gave a relative viability ([3]; first compound 0.1265 µM) of 0.543, a relative viability ([3]; first compound 0.4 µM) of 0.48 and a relative viability ([3]; first compound 1.265 µM) of 0.405. The relative viability ([3]; first compound 4 µM) was 0.438, the relative viability ([4]; first compound 0.04 µM) was 0.412 and the relative viability ([4]; first compound 0.1265 µM) was 0.369. The relative viability ([4]; first compound 0.4 µM) was 0.337, the relative viability ([4]; first compound 1.265 µM) was 0.257 and the relative viability ([4]; first compound 4 µM) was 0.277. The relative viability ([5]; first compound 0.04 µM) was 0.363, the relative viability ([5]; first compound 0.1265 µM) was 0.422 and the relative viability ([5]; first compound 0.4 µM) was 0.505. For the same molecule, the relative viability ([5]; first compound 1.265 µM) was 0.329, the relative viability ([5]; first compound 4 µM) was 0.332 and the relative viability ([6]; first compound 0.04 µM) was 0.677. For the same molecule, the relative viability ([6]; first compound 0.1265 µM) was 0.629, the relative viability ([6]; first compound 0.4 µM) was 0.66 and the relative viability ([6]; first compound 4 µM) was 0.61. The relative viability ([7]; first compound 0.04 µM) was 0.428, the relative viability ([7]; first compound 0.1265 µM) was 0.54 and the relative viability ([7]; first compound 0.4 µM) was 0.456. The relative viability ([7]; first compound 1.265 µM) was 0.501, the relative viability ([7]; first compound 4 µM) was 0.608 and the relative viability ([8]; first compound 0.04 µM) was 0.187. The relative viability ([8]; first compound 0.1265 µM) was 0.281, the relative viability ([8]; first compound 0.4 µM) was 0.242 and the relative viability ([8]; first compound 1.265 µM) was 0.216. The relative viability ([8]; first compound 4 µM) was 0.224, the relative viability ([9]; first compound 0.04 µM) was 0.161 and the relative viability ([9]; first compound 0.1265 µM) was 0.138. For the same molecule, the relative viability ([9]; first compound 0.4 µM) was 0.11, the relative viability ([9]; first compound 1.265 µM) was 0.111 and the relative viability ([9]; first compound 4 µM) was 0.0988. The relative viability ([10]; first compound 0.04 µM) was 0.388, the relative viability ([10]; first compound 0.1265 µM) was 0.388 and the relative viability ([10]; first compound 0.4 µM) was 0.319. It also gave a relative viability ([10]; first compound 1.265 µM) of 0.247, a relative viability ([10]; first compound 4 µM) of 0.231 and a relative viability ([11]; first compound 0.04 µM) of 0.583. The relative viability ([11]; first compound 0.1265 µM) was 0.628, the relative viability ([11]; first compound 0.4 µM) was 0.572 and the relative viability ([11]; first compound 1.265 µM) was 0.59. It also gave a relative viability ([11]; first compound 4 µM) of 0.636, a relative viability ([12]; first compound 0.04 µM) of 0.434 and a relative viability ([12]; first compound 0.1265 µM) of 0.39. For the same molecule, the relative viability ([12]; first compound 0.4 µM) was 0.384, the relative viability ([12]; first compound 1.265 µM) was 0.32 and the relative viability ([12]; first compound 4 µM) was 0.305. The relative viability ([13]; first compound 0.04 µM) was 0.536, the relative viability ([13]; first compound 0.1265 µM) was 0.541 and the relative viability ([13]; first compound 0.4 µM) was 0.541. For the same molecule, the relative viability ([13]; first compound 1.265 µM) was 0.517, the relative viability ([13]; first compound 4 µM) was 0.463 and the relative viability ([14]; first compound 0.04 µM) was 0.319. The relative viability ([14]; first compound 0.1265 µM) was 0.273, the relative viability ([14]; first compound 0.4 µM) was 0.27 and the relative viability ([14]; first compound 1.265 µM) was 0.304. For the same molecule, the relative viability ([14]; first compound 4 µM) was 0.247, the relative viability ([15]; first compound 0.04 µM) was 0.301 and the relative viability ([15]; first compound 0.1265 µM) was 0.309. For the same molecule, the relative viability ([15]; first compound 0.4 µM) was 0.299, the relative viability ([15]; first compound 1.265 µM) was 0.24 and the relative viability ([15]; first compound 4 µM) was 0.33. It also gave a relative viability ([16]; first compound 0.04 µM) of 0.37, a relative viability ([16]; first compound 0.1265 µM) of 0.351 and a relative viability ([16]; first compound 0.4 µM) of 0.36. It also gave a relative viability ([16]; first compound 1.265 µM) of 0.322, a relative viability ([16]; first compound 4 µM) of 0.31 and a relative viability ([17]; first compound 0.04 µM) of 0.54. For the same molecule, the relative viability ([17]; first compound 0.1265 µM) was 0.584, the relative viability ([17]; first compound 0.4 µM) was 0.473 and the relative viability ([17]; first compound 1.265 µM) was 0.509. The relative viability ([17]; first compound 4 µM) was 0.567, the relative viability ([18]; first compound 0.04 µM) was 0.383 and the relative viability ([18]; first compound 0.1265 µM) was 0.225. For the same molecule, the relative viability ([18]; first compound 0.4 µM) was 0.266, the relative viability ([18]; first compound 1.265 µM) was 0.235 and the relative viability ([18]; first compound 4 µM) was 0.26. It also gave a relative viability ([19]; first compound 0.04 µM) of 0.667, a relative viability ([19]; first compound 0.1265 µM) of 0.664 and a relative viability ([19]; first compound 0.4 µM) of 0.764. It also gave a relative viability ([19]; first compound 1.265 µM) of 0.583, a relative viability ([19]; first compound 4 µM) of 0.626 and a relative viability ([20]; first compound 0.04 µM) of 0.662. The relative viability ([20]; first compound 0.1265 µM) was 0.69, the relative viability ([20]; first compound 0.4 µM) was 0.793 and the relative viability ([20]; first compound 4 µM) was 0.564. The relative viability ([21]; first compound 0.04 µM) was 0.485, the relative viability ([21]; first compound 0.1265 µM) was 0.586 and the relative viability ([21]; first compound 0.4 µM) was 0.512. It also gave a relative viability ([21]; first compound 1.265 µM) of 0.426, a relative viability ([21]; first compound 4 µM) of 0.422 and a relative viability ([22]; first compound 0.04 µM) of 0.234. It also gave a relative viability ([22]; first compound 0.1265 µM) of 0.177, a relative viability ([22]; first compound 0.4 µM) of 0.2 and a relative viability ([22]; first compound 1.265 µM) of 0.218. For the same molecule, the relative viability ([22]; first compound 4 µM) was 0.253, the relative viability ([23]; first compound 0.04 µM) was 0.366 and the relative viability ([23]; first compound 0.1265 µM) was 0.386. The relative viability ([23]; first compound 0.4 µM) was 0.407, the relative viability ([23]; first compound 1.265 µM) was 0.361 and the relative viability ([23]; first compound 4 µM) was 0.457.

Reference: the supplement of paper PMC10307832
